Measured values reported in paper PMC2783590 (Nature chemical biology, 2009).

What was measured:
[1] = tested on: Akt (Thr308, Ser473) and GSK3β (Ser9) phosphorylation; type: cell-based, Human; details: serum-starved HEK293, 20 min drug then 50 ng/ml IGF-1 10 min
[2] = tested on: HA-asAkt1 (Thr308, Ser473) phosphorylation; experiment: HEK293 cells transfected with HA-asAkt1, immunoblotting; type: cell-based, Human; details: 30 min, serially diluted inhibitor
[3] = tested on: GSK3β (Ser9) phosphorylation; experiment: HEK293 cells transfected with myr-HA-asAkt1, immunoblotting; type: cell-based, Human; details: myr-HA-asAkt1, 30 min, various concentrations
[4] = tested on: myr-HA-asAkt1-KD or myr-HA-asAkt2-KD (Thr308, Ser473) phosphorylation; experiment: HEK293 cells expressing kinase dead; type: cell-based, Human; details: 30 min, 2.5 µM PrINZ or 10 µM 3-IB-PP1
[5] = tested on: Akt membrane localization; experiment: Immunofluorescence of Akt in untransfected HEK293 cells; type: cell-based, Human
PC-3 tumor = details: PC-3 xenograft; cited from earlier work
MiaPaCa-2 tumor = details: MiaPaCa-2 xenograft; cited from earlier work
3T3-Akt1 tumor = details: 3T3-Akt1 xenograft; cited from earlier work
[6] = tested on: HA-asAkt1/2/3 (Thr308, Ser473) phosphorylation; type: cell-based, Human; details: then 2.5 µM PrINZ 30 min; for hyperphosphorylation induced by PrINZ (Thr308 and Ser473): pre-treatment 10 min; for PrINZ induced Thr308 phosphorylation / PrINZ induced hyperphosphorylation at Ser473: pre-treatment 10 min (10 µM BX-795, 2.5 µM PP242)
220 purified kinases = experiment: SelectScreen profiling, whole panel; type: biochemical; details: 1 µM
[7] = tested on: Akt (Thr308) and rpS6 (Ser240/244) phosphorylation in L6 cells; experiment: Insulin stimulated L6 cells, immunoblotting; type: cell-based; details: serum-starved, 20 min drug then 100 nM insulin 10 min
Akt = details: cited from earlier work
[8] = tested on: myr-HA-asAkt1 (Thr308, Ser473) phosphorylation; type: cell-based, Human; details: 2.5 µM PIK90 10 min, then 2.5 µM PrINZ 30 min
myr-HA-wtAkt1 = myr-HA-wtAkt1 (Homo sapiens, UniProt P31749); experiment: In vitro IP kinase assay for Akt variants; type: biochemical; details: myr-HA-wtAkt1 expressed in HEK293T cells, immunoprecipitated; 50 µM ATP
Sequence of myr-HA-wtAkt1 (P31749 whole entry): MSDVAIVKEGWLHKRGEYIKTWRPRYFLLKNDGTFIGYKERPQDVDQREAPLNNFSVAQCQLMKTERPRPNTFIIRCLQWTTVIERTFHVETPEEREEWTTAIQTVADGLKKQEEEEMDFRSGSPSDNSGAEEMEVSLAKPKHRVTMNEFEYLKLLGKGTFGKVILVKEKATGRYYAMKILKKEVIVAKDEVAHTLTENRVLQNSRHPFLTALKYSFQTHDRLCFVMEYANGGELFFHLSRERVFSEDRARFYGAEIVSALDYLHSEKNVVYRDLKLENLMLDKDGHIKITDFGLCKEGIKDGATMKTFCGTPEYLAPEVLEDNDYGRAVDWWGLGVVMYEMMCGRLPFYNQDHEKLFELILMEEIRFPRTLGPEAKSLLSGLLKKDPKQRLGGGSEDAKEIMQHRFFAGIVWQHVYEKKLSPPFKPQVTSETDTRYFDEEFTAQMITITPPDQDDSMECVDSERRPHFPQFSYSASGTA

myr-HA-asAkt1 = myr-HA-asAkt1 (Homo sapiens, UniProt P31749, M227G); experiment: In vitro IP kinase assay for Akt variants; type: biochemical; details: myr-HA-asAkt1 expressed in HEK293T cells, immunoprecipitated; 50 µM ATP
Sequence of myr-HA-asAkt1 (P31749 whole entry M227G): as the sequence (P31749 whole entry) above, with M227G counted along it

myr-HA-wtAkt2 = myr-HA-wtAkt2 (Homo sapiens, UniProt P31751); experiment: In vitro IP kinase assay for Akt variants; type: biochemical; details: myr-HA-wtAkt2 expressed in HEK293T cells, immunoprecipitated; 50 µM ATP
Sequence of myr-HA-wtAkt2 (P31751 whole entry): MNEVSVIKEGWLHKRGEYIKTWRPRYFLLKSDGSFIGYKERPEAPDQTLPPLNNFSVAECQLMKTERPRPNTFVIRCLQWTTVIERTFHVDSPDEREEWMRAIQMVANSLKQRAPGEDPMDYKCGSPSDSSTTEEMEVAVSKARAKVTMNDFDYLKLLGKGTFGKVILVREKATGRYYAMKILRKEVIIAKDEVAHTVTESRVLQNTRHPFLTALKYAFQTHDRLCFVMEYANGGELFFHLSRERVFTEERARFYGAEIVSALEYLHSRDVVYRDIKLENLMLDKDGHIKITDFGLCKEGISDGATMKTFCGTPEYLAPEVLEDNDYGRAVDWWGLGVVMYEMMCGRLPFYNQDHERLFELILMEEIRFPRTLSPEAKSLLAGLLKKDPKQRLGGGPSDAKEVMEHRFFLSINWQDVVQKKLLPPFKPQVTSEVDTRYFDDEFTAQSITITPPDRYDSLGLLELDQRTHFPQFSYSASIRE

myr-HA-asAkt2 = myr-HA-asAkt2 (Homo sapiens, UniProt P31751, M229G); experiment: In vitro IP kinase assay for Akt variants; type: biochemical; details: myr-HA-asAkt2 expressed in HEK293T cells, immunoprecipitated; 50 µM ATP
Sequence of myr-HA-asAkt2 (P31751 whole entry M229G): as the sequence (P31751 whole entry) above, with M229G counted along it

myr-HA-wtAkt3 = myr-HA-wtAkt3 (Homo sapiens, UniProt Q9Y243); experiment: In vitro IP kinase assay for Akt variants; type: biochemical; details: myr-HA-wtAkt3 expressed in HEK293T cells, immunoprecipitated; 50 µM ATP
Sequence of myr-HA-wtAkt3 (Q9Y243 whole entry): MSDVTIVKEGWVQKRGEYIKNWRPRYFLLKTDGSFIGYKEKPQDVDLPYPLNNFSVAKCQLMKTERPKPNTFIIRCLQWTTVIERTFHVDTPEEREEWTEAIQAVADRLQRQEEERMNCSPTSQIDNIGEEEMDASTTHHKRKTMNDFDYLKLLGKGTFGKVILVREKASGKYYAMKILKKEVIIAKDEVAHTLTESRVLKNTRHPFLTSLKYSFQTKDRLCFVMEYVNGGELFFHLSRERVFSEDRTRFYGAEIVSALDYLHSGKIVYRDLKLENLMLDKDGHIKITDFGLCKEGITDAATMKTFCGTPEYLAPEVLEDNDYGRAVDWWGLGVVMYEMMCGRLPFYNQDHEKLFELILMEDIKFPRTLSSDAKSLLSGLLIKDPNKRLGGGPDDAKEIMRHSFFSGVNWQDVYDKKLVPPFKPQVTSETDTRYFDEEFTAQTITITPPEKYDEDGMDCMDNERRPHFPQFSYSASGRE

myr-HA-asAkt3 = myr-HA-asAkt3 (Homo sapiens, UniProt Q9Y243, M225G); experiment: In vitro IP kinase assay for Akt variants; type: biochemical; details: myr-HA-asAkt3 expressed in HEK293T cells, immunoprecipitated; 50 µM ATP
Sequence of myr-HA-asAkt3 (Q9Y243 whole entry M225G): as the sequence (Q9Y243 whole entry) above, with M225G counted along it

[9] = tested on: HA-asAkt1 and flag-wtAkt1 (Thr308, Ser473) phosphorylation; type: cell-based, Human; details: 30 min, various concentrations

What does the source list for `CC(C)(C)n1nc(Cc2cccc(I)c2)c2c(N)ncnc21` [3-IB-PP1]?
Akt phosphorylation at Thr308 and Ser473 [1]: unperturbed; phosphorylation on GSK3β at Ser9 [1]: unperturbed; HA-asAkt1 hyperphosphorylation [2]: induced; phosphorylation level of Ser9 on GSK3β [3]: decreased; hyperphosphorylation on Thr308 and Ser473 of kinase dead mutants [4]: induced striking hyperphosphorylation

Which “Akt phosphorylation at Thr308 and Ser473” value [1] does the source give for `Cc1n[nH]c2ccc(-c3cncc(OC[C@@H](N)Cc4c[nH]c5ccccc45)c3)cc12` [A-443654] here?
Its value is “induced”.

And the “phosphorylation on GSK3β at Ser9” value [1]?
The value was “potently inhibited”.

What about the “location of Akt” value ([5]; 2.5 µM, 15 min, no growth factor stimulation) of the same molecule?
Its value is “translocation of Akt to the plasma membrane”.

What about the tumor growth (PC-3 tumor) of the same molecule?
The tumor growth was “inhibit the growth”.

And the tumor growth (MiaPaCa-2 tumor)?
Its tumor growth is “inhibit the growth”.

What about the tumor growth (3T3-Akt1 tumor) of the same molecule?
The tumor growth was “inhibit the growth”.

For `O=c1[nH]c2ccccc2n1C1CCN(Cc2ccc(-c3nc4cc5nc[nH]c5cc4nc3-c3ccccc3)cc2)CC1` [Akti-1,2], which “hyperphosphorylation induced by PrINZ (Thr308 and Ser473)” value [6] is on record?
Its value is “dose-dependent inhibition”.

With `O=C(NCCCNc1nc(Nc2cccc(NC(=O)N3CCCC3)c2)ncc1I)c1cccs1` [BX-795] as the molecule, how does the “selectivity in panel of 220 kinases” value (220 purified kinases) read?
The value was “selective for only PDK1 within the PI3K-mTORC1 pathway”.

And the “PrINZ induced Thr308 phosphorylation” value [6]?
Its value is “significant decrease”.

What about the “PrINZ induced hyperphosphorylation at Ser473” value [6] of the same molecule?
Its value is “reduced”.

For `COc1ccccc1N1CCN(c2ncnc3[nH]nc(Br)c23)CC1` [DG2], which “Akt phosphorylation at Thr308 and Ser473” value [7] is on record?
The value was “does not induce”.

For `CCn1c(-c2nonc2N)nc2c(C#CC(C)(C)O)ncc(OC[C@H]3CCCNC3)c21` [GSK690693, 4-(2-(4-amino-1,2,5-oxadiazol-3-yl)-1-ethyl-7-{[(3S)-3-piperidinylmethyl]oxy}-1H-imidazo[4,5-c]pyridin-4-yl)-2-methyl-3-butyn-2-ol], which Akt hyperphosphorylation (Akt) is on record?
Its Akt hyperphosphorylation is “induces Akt hyperphosphorylation”.

With `COc1ccc2c(c1OC)N=C(NC(=O)c1cccnc1)N1CCN=C21` [PIK90] as the molecule, how does the “hyperphosphorylation induced by PrINZ (Thr308 and Ser473)” value [6] read?
The value was “significantly attenuated”.

And the “hyperphosphorylation on myr-HA-asAkt1” value [8]?
The value was “not inhibited”.

And the “A-443654 induced translocation and Thr308 phosphorylation of Akt” value ([5]; 2.5 µM PIK90 10 min before 2.5 µM A-443654 15 min)?
Its value is “inhibited”.

With `CC(C)n1nc(-c2cc3cc(O)ccc3[nH]2)c2c(N)ncnc21` [PP242] as the molecule, how does the “PrINZ induced Thr308 phosphorylation” value [6] read?
The value was “unaffected”.

What about the “PrINZ induced hyperphosphorylation at Ser473” value [6] of the same molecule?
The value was “completely inhibited”.

Which results are given for `CCCc1cc(-c2cncc(OC[C@@H](N)Cc3c[nH]c4ccccc34)c2)cc2c(C)n[nH]c12` [PrINZ]?
IC50 (nM) wtAkt1 (myr-HA-wtAkt1): did not inhibit; IC50 (nM) asAkt1 (myr-HA-asAkt1): low nanomolar range; IC50 (nM) wtAkt2 (myr-HA-wtAkt2): did not inhibit; IC50 (nM) asAkt2 (myr-HA-asAkt2): low nanomolar range; IC50 (nM) wtAkt3 (myr-HA-wtAkt3): did not inhibit; IC50 (nM) asAkt3 (myr-HA-asAkt3): low nanomolar range; Akt phosphorylation at Thr308 and Ser473 [1]: unperturbed; phosphorylation on GSK3β at Ser9 [1]: unperturbed; HA-asAkt1 hyperphosphorylation [2]: induced; phosphorylation level of Ser9 on GSK3β [3]: decreased; hyperphosphorylation on Thr308 and Ser473 of kinase dead mutants [4]: induced striking hyperphosphorylation; Thr308 and Ser473 phosphorylation after immunoprecipitation [9]: induced only on HA-asAkt1
